From ChEMBL document CHEMBL6134819, “Discovery of novel tranylcypromine-indazole-based derivatives as LSD1 inhibitors for acute myeloid leukemia treatment” (Eur J Med Chem, 2025)
Active and inactive are the calls of the source. The rule behind the calls is not given here.

Assays:
[1] = Half life in male Sprague-Dawley rat at 1 mg/kg, iv measured up to 24 hrs by LC-MS/MS analysis; format: ADME, organism-based; conditions: in vivo
MV4-11 [2] = test: Antiproliferative activity against human MV4-11 cells assessed as inhibition of cell growth measured after 7 days by cell-titer glo assay; format: functional, cell-based; conditions: MV4-11, 168 h
[3] = Solubility in PBS buffer at pH 7.4 measured after 2 hrs by LC-MS/MS analysis; format: physicochemical
MV4-11 [4] = test: Upregulation of CD86 expression in human MV4-11 cells incubated for 48 hrs by flow cytometry analysis; format: functional, cell-based; conditions: dose 2-4 µmol/L
MV4-11 [5] = test: Induction of apoptosis in human MV4-11 cells assessed as late apoptotic cells at 4 micromol/L measured after 48 hrs by Annexin V-FITC/PI double staining based flow cytometry analysis (reference value: 7.70 %); format: functional; conditions: dose 4 µmol/L, at 4 µM
HL-60 = test: Antiproliferative activity against human HL-60 cells assessed as inhibition of cell growth measured after 7 days by cell-titer glo assay; format: functional, cell-based; conditions: HL-60, 168 h
[6] = biological target: T1, Lysine-specific histone demethylase 1A (Homo sapiens, UniProt O60341); test: Inhibition of LSD1 in human MV4-11 cells assessed as increase in H3K4me2 expression level at 2 to 4 micromol/L measured after 48 hrs by Western blot analysis; format: cell-based; conditions: dose 2-4 µmol/L
[7] = AUC (0 to t) in male Sprague-Dawley rat at 1 mg/kg, iv measured up to 24 hrs by LC-MS/MS analysis; format: ADME, organism-based; conditions: in vivo
[8] = Metabolic stability in mouse liver microsomes assessed as half life measured up to 60 mins in presence of NADPH by LC-MS/MS analysis; format: ADME, Microsome
[9] = AUC (0 to infinity) in male Sprague-Dawley rat at 1 mg/kg, iv measured up to 24 hrs by LC-MS/MS analysis; format: ADME, organism-based; conditions: in vivo
[10] = Upregulation of CD86 expression in human MV4-11 cells at 4 micromol/L incubated for 48 hrs by flow cytometry analysis relative to control; format: functional; conditions: dose 4 µmol/L, at 4 µM
[11] = Half life in male Sprague-Dawley rat at 10 mg/kg, po measured up to 24 hrs by LC-MS/MS analysis; format: ADME, organism-based; conditions: in vivo
MV4-11 [12] = test: Induction of apoptosis in human MV4-11 cells assessed as increase in cleaved caspase-7 level at 2 to 4 micromol/L measured after 72 hrs by Western blot analysis; format: functional, cell-based; conditions: dose 2-4 µmol/L
[13] = AUC (0 to infinity) in male Sprague-Dawley rat at 10 mg/kg, po measured up to 24 hrs by LC-MS/MS analysis; format: ADME, organism-based; conditions: in vivo
[14] = biological target: Voltage-gated inwardly rectifying potassium channel KCNH2 (Homo sapiens, UniProt Q12809); test: Inhibition of human ERG by whole cell patch clamp assay; format: toxicity
MV4-11 [15] = test: Induction of apoptosis in human MV4-11 cells assessed as late apoptotic cells at 3 micromol/L measured after 48 hrs by Annexin V-FITC/PI double staining based flow cytometry analysis (reference value: 7.70 %); format: functional; conditions: dose 3 µmol/L, at 3 µM
[16] = Cmax in male Sprague-Dawley rat at 1 mg/kg, iv measured up to 24 hrs by LC-MS/MS analysis; format: ADME, organism-based; conditions: in vivo
[17] = biological target: T2, Amine oxidase [flavin-containing] B (Homo sapiens, UniProt P27338); test: Inhibition of human N-terminal Flag-tagged MAOB extracted baculovirus infected in Sf9 cells measured after 0.5 hrs by MAO-Glo Assay; format: cell-based
T2 sequence (P27338 whole entry): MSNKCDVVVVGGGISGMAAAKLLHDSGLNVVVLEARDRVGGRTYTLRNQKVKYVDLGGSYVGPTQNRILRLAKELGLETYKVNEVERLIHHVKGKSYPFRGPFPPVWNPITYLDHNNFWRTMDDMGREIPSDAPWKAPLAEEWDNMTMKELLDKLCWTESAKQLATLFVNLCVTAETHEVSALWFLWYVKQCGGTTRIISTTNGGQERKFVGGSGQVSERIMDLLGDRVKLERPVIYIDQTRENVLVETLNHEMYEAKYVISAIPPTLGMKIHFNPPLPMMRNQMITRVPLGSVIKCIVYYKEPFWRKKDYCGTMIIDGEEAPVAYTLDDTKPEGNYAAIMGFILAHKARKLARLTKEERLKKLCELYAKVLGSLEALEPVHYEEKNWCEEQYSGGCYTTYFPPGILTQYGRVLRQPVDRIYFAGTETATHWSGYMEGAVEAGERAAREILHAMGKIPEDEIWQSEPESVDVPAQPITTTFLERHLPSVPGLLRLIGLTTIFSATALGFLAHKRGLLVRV

[18] = Octanol-water partition coefficient, logP of the compound; format: physicochemical
[19] = biological target: T1, Lysine-specific histone demethylase 1A; test: Inhibition of LSD1 in human MV4-11 cells assessed as increase in LSD1 protein level at 2 to 4 micromol/L measured after 48 hrs by Western blot analysis; format: cell-based; conditions: dose 2-4 µmol/L
[20] = Cmax in male Sprague-Dawley rat at 10 mg/kg, po measured up to 24 hrs by LC-MS/MS analysis; format: ADME, organism-based; conditions: in vivo
MV4-11 [21] = test: Induction of apoptosis in human MV4-11 cells assessed as increase in cleaved PARP level at 2 to 4 micromol/L measured after 72 hrs by Western blot analysis; format: functional, cell-based; conditions: dose 2-4 µmol/L
[22] = Clearance in male Sprague-Dawley rat at 1 mg/kg, iv measured up to 24 hrs by LC-MS/MS analysis; format: ADME, organism-based; conditions: in vivo
MV4-11 [23] = test: Induction of apoptosis in human MV4-11 cells assessed as early apoptotic cells at 3 micromol/L measured after 48 hrs by Annexin V-FITC/PI double staining based flow cytometry analysis (reference value: 2.01 %); format: functional; conditions: dose 3 µmol/L, at 3 µM
[24] = biological target: T1, Lysine-specific histone demethylase 1A; test: Inhibition of LSD1 in human MV4-11 cells assessed as increase in H3K4me1 expression level at 2 to 4 micromol/L measured after 48 hrs by Western blot analysis; format: cell-based; conditions: dose 2-4 µmol/L
[25] = Metabolic stability in human liver microsomes assessed as half life measured up to 60 mins in presence of NADPH by LC-MS/MS analysis; format: ADME, Microsome
[26] = AUC (0 to t) in male Sprague-Dawley rat at 10 mg/kg, po measured up to 24 hrs by LC-MS/MS analysis; format: ADME, organism-based; conditions: in vivo
[27] = Oral bioavailability in male Sprague-Dawley rat at 10 mg/kg measured up to 24 hrs by LC-MS/MS analysis; format: ADME, organism-based; conditions: in vivo
MV4-11 [28] = test: Induction of apoptosis in human MV4-11 cells assessed as viable cells at 4 micromol/L measured after 48 hrs by Annexin V-FITC/PI double staining based flow cytometry analysis (reference value: 89.13%); format: functional; conditions: MV4-11, 48 h, dose 4 µmol/L, read-out: Activity
[29] = Metabolic stability in rat liver microsomes assessed as half life measured up to 60 mins in presence of NADPH by LC-MS/MS analysis; format: ADME, Microsome
MV4-11 [30] = test: Induction of apoptosis in human MV4-11 cells assessed as necrotic cells at 2 micromol/L measured after 48 hrs by Annexin V-FITC/PI double staining based flow cytometry analysis (reference value: 1.16 %); format: functional; conditions: dose 2 µmol/L, at 2 µM

Chain of Voltage-gated inwardly rectifying potassium channel KCNH2 (Q12809 whole entry): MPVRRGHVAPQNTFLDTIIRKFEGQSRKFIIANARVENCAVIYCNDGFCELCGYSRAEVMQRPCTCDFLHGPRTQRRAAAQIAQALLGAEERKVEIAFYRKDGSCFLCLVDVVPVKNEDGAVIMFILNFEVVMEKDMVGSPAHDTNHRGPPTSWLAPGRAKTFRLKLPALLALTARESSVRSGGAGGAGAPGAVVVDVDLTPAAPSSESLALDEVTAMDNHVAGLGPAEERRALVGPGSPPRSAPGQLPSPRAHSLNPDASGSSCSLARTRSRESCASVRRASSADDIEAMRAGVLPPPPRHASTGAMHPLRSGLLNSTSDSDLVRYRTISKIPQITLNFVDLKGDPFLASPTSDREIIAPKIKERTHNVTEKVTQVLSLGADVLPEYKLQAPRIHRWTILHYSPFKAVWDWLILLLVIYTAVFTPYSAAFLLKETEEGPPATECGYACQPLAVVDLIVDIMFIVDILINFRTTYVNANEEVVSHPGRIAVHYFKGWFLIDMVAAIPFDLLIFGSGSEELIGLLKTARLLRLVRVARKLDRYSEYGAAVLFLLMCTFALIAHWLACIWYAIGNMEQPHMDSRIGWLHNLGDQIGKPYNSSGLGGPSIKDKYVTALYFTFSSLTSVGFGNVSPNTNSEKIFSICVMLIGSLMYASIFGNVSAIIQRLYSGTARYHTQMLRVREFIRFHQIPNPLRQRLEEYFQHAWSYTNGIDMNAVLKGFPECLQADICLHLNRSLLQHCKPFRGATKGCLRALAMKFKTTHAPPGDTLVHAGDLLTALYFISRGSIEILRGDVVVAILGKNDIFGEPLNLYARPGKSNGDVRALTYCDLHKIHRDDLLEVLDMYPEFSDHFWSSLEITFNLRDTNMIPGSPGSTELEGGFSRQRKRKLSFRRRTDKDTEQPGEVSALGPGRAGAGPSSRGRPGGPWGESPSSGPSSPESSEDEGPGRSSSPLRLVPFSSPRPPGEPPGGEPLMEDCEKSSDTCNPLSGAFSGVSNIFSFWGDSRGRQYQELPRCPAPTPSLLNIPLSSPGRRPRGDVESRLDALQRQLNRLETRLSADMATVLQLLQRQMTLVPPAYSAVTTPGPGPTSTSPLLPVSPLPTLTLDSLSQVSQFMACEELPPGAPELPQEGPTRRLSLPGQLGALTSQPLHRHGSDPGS

Work on Cl.O=S(=O)(c1ccccc1)n1ncc2cc(-n3cc(CN[C@@H]4C[C@H]4c4ccc(F)c(F)c4)nn3)ccc21 yielded a half-life [1] of 41.4 min, an IC50 (MV4-11 [2]) of 1400 nM and a solubility at 2 h [3] of 1.43 µM. For the same compound, the Activity (MV4-11 [4]) was “Dose-dependent-effect”, the Activity (MV4-11 [5]) was 15.39% and the IC50 (HL-60) was 1400 nM. For the same compound, the inhibition [6] was “Active”, the AUC(0-t) at 24 h [7] was 481 ng·h/mL and the half-life [8] was 5.3 min. It also gave an AUC(0-inf) [9] of 483 ng·h/mL, an Activity [10] of 33.76% and a half-life [11] of 86.4 min. The Activity (MV4-11 [12]) was “Active”, the AUC(0-inf) [13] was 290 ng·h/mL and the IC50 [14] was 576 nM. For the same compound, the Activity (MV4-11 [15]) was 13.22%, the Cmax [16] was 869 ng/mL and the IC50 [17] was 2650 nM. The logP [18] was 4.2, the inhibition [19] was “Active” and the Cmax [20] was 89.8 ng/mL. The Activity (MV4-11 [21]) was “Active”, the clearance [22] was 35.3 mL/min/kg and the Activity (MV4-11 [23]) was 3.18%. For the same compound, the inhibition [24] was “Active”, the half-life [25] was 11.6 min and the AUC(0-t) at 24 h [26] was 280 ng·h/mL. For the same compound, the bioavailability [27] was 6.01%, the viability at 4 µM (MV4-11 [28]) was 77.4% and the half-life [29] was 3.94 min. For the same compound, the Activity (MV4-11 [30]) was 3.32%.
